Test results from article PMC12400508 (RSC Advances, 2025).
≈ marks a conversion by molar mass, not a printed value.

How the values were obtained:
Format in all cases: cell-based, Mycobacterium tuberculosis
mc^26230_R1 = tested on: mc^26230_R1
mc^26230_R3 = tested on: mc^26230_R3
[1] = tested on: mc^26230 overexpressing InhA (pMV261_inhA); experiment: microbe, parasite or virus in culture; settings: for fold change between the strain harboring the empty plasmid pMV261 and the strain overexpressing InhA: MIC pMV261_inhA / MIC pMV261; for MIC: Mycobacterium tuberculosis, read-out: MIC, pMV261_inhA

Row | SMILES | MIC, mc^26230_R1 (mc^26230_R1) [µg/mL] | fold increase of MIC in the KatG mutated strains versus parental strain (mc^26230_R1) [fold] | MIC, mc^26230_R3 (mc^26230_R3) [µg/mL] | fold change between the strain harboring the empty plasmid pMV261 and the strain overexpressing InhA [1] [fold] | MIC [1] [µg/mL] | MIC, pMV261_inhA [1]
1 | O=C1N=C(NNC(=O)c2ccncc2)S/C1=C\c1ccc(Cl)cc1 [9n] | 100 (≈ 279 µM) | 8 | 100 (≈ 279 µM) | 4 | 100 (≈ 279 µM) | –
2 | O=C1N=C(NNC(=O)c2ccncc2)S/C1=C\c1ccc(F)cc1 [9j] | 100 (≈ 292 µM) | 8 | 100 (≈ 292 µM) | 8 | 100 (≈ 292 µM) | –
3 | NNC(=O)c1ccncc1 [INH, isoniazid, reference compound] | >10 | – | >10 | 16 | 1.25 (≈ 9.11 µM) | –
4 | O=C1N=C(NNC(=O)c2ccncc2)S/C1=C\c1ccccc1F [9l] | 100 (≈ 292 µM) | 4 | 100 (≈ 292 µM) | – | – | –
5 | Cc1ccccc1/C=C1\SC(NNC(=O)c2ccncc2)=NC1=O [9d] | 50 (≈ 148 µM) | 32 | 50 (≈ 148 µM) | 16 | 50 (≈ 148 µM) | –
6 | O=C1N=C(NNC(=O)c2ccncc2)S/C1=C\c1ccccc1Cl [9p] | 100 (≈ 279 µM) | 4 | 100 (≈ 279 µM) | – | – | –
7 | CO[C@H]1/C=C/O[C@@]2(C)Oc3c(C)c(O)c4c(O)c(c(/C=N/N5CCN(C)CC5)c(O)c4c3C2=O)NC(=O)/C(C)=C\C=C\[C@H](C)[C@H](O)[C@@H](C)[C@@H](O)[C@@H](C)[C@H](OC(C)=O)[C@@H]1C [RIF, reference compound] | – | – | – | 1 | 0.039 (≈ 0.0474 µM) | unaffected
